Measured values from ChEMBL document CHEMBL3217740, “Novel selective inhibitors of neutral endopeptidase: discovery by screening and hit-to-lead optimisation” (Medchemcomm, 2012).
≈ marks a conversion by molar mass, not a printed value.

Columns and labels:
[1] = Half life in rat plasma at 10 uM by LC-MS/MS; format: ADME, cell-free
[2] = biological target: T1, Endothelin-converting enzyme 1 (Homo sapiens, UniProt P42892); assay: Inhibition of ECE-1 in human NCO cells using Mca-Arg-Pro-Pro-GlyPhe-Ser-Ala-DpaOH as substrate after 45 mins by fluorescence assay; format: cell-based
T1 sequence (P42892 whole entry): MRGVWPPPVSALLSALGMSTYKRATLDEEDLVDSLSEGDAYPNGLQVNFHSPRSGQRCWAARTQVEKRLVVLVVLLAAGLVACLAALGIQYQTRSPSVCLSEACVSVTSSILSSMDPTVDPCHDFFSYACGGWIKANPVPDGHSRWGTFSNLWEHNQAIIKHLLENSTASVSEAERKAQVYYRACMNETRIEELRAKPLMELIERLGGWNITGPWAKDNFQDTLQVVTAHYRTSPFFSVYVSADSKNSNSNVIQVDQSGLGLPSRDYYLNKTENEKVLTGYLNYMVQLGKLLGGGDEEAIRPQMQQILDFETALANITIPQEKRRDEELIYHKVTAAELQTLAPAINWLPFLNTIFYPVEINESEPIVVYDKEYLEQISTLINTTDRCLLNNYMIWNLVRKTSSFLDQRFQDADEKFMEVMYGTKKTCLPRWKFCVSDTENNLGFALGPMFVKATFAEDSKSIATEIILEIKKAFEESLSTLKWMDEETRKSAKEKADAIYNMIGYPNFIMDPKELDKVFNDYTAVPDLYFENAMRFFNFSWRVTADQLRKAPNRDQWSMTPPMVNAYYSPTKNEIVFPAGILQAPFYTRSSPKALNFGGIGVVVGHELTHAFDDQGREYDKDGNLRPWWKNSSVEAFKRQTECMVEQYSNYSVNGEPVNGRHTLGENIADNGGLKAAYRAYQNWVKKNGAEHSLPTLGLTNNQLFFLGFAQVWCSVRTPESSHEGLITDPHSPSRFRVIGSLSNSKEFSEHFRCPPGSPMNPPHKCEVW

[3] = Solubility of the compound in PBS buffer at pH 7.4 after 24 hrs by LC-MS/MS analysis; format: physicochemical
Neprilysin = Neprilysin (Homo sapiens, UniProt P08473); assay: Inhibition of human NEP using N-Dansyl-D-Ala-Gly-p-nitro-Phe-Gly as substrate preincubated for 10 mins followed by substrate addition measured after 2 hrs by spectrophotometric analysis
Chain of Neprilysin (P08473 whole entry): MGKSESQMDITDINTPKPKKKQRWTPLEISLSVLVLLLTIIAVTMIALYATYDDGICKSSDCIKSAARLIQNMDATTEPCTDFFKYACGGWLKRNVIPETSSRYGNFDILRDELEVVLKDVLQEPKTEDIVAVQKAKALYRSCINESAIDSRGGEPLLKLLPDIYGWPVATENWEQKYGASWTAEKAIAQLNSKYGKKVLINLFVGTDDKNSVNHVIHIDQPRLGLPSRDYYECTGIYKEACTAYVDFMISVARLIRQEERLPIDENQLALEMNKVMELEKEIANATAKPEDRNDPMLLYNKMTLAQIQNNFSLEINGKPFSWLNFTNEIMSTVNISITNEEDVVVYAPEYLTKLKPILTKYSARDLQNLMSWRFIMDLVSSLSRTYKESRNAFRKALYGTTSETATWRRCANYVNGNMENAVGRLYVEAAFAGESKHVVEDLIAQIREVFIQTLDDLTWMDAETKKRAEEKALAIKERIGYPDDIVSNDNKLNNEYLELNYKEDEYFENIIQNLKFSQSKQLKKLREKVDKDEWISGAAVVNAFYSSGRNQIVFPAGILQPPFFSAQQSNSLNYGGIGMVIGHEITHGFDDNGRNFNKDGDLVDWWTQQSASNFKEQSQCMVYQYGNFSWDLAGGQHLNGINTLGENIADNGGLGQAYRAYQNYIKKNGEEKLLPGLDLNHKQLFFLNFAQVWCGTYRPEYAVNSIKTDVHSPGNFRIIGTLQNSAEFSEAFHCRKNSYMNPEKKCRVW

[4] = 1-octanol-PBS distribution coefficient, Log D of the compound at pH 7.4 after 2 hrs by LC-MS analysis; format: physicochemical
[5] = biological target: Angiotensin-converting enzyme (Homo sapiens, UniProt P12821); assay: Inhibition of human ACE-1 using Abz-Gly-p-nitro-Phe-Pro-OH as substrate preincubated for 10 mins followed by substrate addition measured after 17 hrs by spectrophotometric analysis
Chain of Angiotensin-converting enzyme (P12821 whole entry): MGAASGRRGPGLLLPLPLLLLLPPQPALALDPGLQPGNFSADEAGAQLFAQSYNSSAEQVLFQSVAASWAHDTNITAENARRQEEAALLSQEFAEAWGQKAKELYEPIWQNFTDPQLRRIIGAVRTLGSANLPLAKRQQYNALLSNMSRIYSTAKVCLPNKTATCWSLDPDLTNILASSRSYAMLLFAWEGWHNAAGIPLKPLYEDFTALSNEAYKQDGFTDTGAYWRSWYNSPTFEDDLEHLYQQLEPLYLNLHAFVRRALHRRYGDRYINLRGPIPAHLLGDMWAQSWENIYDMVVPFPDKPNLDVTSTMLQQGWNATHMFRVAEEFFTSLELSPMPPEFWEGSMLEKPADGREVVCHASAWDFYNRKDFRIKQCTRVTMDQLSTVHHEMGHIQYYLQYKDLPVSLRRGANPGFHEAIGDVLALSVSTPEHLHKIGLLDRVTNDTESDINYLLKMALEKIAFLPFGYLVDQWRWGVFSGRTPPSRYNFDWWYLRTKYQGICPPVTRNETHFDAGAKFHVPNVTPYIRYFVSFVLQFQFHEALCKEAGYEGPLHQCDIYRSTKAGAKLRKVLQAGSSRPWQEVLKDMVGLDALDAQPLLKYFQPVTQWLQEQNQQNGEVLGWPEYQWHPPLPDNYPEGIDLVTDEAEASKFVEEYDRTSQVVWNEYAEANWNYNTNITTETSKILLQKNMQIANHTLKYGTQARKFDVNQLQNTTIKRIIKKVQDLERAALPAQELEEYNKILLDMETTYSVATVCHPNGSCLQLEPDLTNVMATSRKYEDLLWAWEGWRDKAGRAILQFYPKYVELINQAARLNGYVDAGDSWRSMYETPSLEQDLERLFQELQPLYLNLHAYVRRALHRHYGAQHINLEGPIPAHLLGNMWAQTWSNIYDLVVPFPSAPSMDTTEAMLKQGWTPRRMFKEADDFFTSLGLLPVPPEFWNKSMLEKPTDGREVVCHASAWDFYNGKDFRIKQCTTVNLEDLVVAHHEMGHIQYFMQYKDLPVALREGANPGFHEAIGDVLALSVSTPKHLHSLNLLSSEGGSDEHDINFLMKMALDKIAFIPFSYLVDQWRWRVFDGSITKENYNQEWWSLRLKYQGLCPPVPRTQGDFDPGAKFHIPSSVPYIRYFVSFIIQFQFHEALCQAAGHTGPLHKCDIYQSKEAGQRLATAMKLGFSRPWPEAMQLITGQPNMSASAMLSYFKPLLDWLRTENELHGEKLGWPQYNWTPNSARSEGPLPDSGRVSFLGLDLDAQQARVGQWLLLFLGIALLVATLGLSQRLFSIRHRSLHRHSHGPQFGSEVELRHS

[6] = Stability of the compound assessed as GSH adduct formation by LC-MS analysis; format: ADME

| half-life at 10 µM [1] [min] | IC50 [2] [µM] | solubility at 24 h [3] [µM] | IC50 (Neprilysin) [µM] | logD at 2 h [4] | IC50 [5] [µM] | Stability [6] | SMILES |
| --- | --- | --- | --- | --- | --- | --- | --- |
| > 1440 | > 31.6 | > 200 | > 1000 | -3.8 | > 31.6 |  | CC(C)C[C@H](CC(=O)N[C@@H](CO)C(=O)O)C(=O)O |
|  |  |  | > 1000 |  |  |  | COC(=O)[C@H](CC(C)C)NC(=O)N[C@H](CO)C(=O)O (single isomer, unassigned) |
|  |  |  | > 1000 |  |  |  | COC(=O)[C@H](CC(=O)N[C@H](CO)C(=O)O)CC(C)C |
| > 1440 | > 31.6 | > 200 | 6.31 | -3.8 | > 31.6 |  | CC(C)C[C@H](CC(=O)O)C(=O)N[C@@H](CO)C(=O)O |
|  |  |  | 2.51 |  |  | Unstable | CC(C)C[C@H]1CC(=O)N([C@@H](CO)C(=O)O)C1=O |
| 6 |  | 160 (≈ 44 µg/mL) | 79.4 |  |  |  | COC(=O)[C@H](CC(=O)N[C@@H](CO)C(=O)O)CC(C)C |
|  |  |  | > 1000 |  |  |  | COC(=O)[C@@H](CC(=O)N[C@H](CO)C(=O)O)CC(C)C |
| > 1440 | > 31.6 | > 200 | 0.794 | -3.4 | > 31.6 |  | CC(C)C[C@@H](CC(=O)N[C@@H](CO)C(=O)O)C(=O)O |
|  |  |  | > 1000 |  |  |  | COC(=O)[C@H](CC(C)C)NC(=O)N[C@@H](CO)C(=O)O |
|  |  |  | > 1000 |  |  |  | COC(=O)[C@@H](CC(=O)N[C@@H](CO)C(=O)O)CC(C)C |
|  |  |  | > 1000 |  |  |  | COC(=O)C(CC(C)C)C(=O)N[C@H](CO)C(=O)O (mixture of isomers) |
|  |  |  | 50.1 |  |  |  | COC(=O)C(CC(C)C)C(=O)N[C@@H](CO)C(=O)O (mixture of isomers) |
| > 1440 | > 31.6 | > 200 | 0.0631 | -3.7 | > 31.6 | Stable | CC(C)C[C@@H](CC(=O)O)C(=O)N[C@@H](CO)C(=O)O |
